In EP0982026A2, “Use of aryl-cyclohexylamine derivatives in the manufacture of NMDA receptor blockers” (priority 1998, dated 2000):
Like-named read-outs stand apart in the source and are kept apart here.

Biological target: T1, NMDA receptor (Rattus norvegicus, UniProt P35439+Q00960)
T1 construct: Membranes were prepared by homogenization of the whole brain minus cerebellum and medulla oblongata; from tissue; host or cells: rat whole brain minus cerebellum and medulla oblongata (membranes)
Test: 3H-Ro 25-6981 binding (displacement) on rat brain membranes
Set-up: species or system Füllinsdorf albino rats
Protocol: 3H-Ro 25-6981 binding (Ro 25-6981 is [R-(R*,S*)]-a-(4-Hydroxy-phenyl)-b-methyl-4-(phenyl-methyl)-1-piperidine propanol)
Male Füllinsdorf albino rats weighing between 150-200 g were used. Membranes were prepared by homogenization of the whole brain minus cerebellum and medulla oblongata with a Polytron (10.000 rpm, 30 seconds), in 25 volumes of a cold Tris-HCl 50 mM, EDTA 10 mM, pH 7.1 buffer. The homogenate was centrifuged at 48.000 g for 10 minutes at 4°C. The pellet was resuspended using the Polytron in the same volume of buffer and the homogenate was incubated at 37°C for 10 minutes. After centrifugation the pellet was homogenized in the same buffer and frozen at -80°C for at least 16 hours but not more than 10 days. For the binding assay the homogenate was thawed at 37°C, centrifuged and the pellet was washed three times as above in a Tris-HCl 5 mM, pH 7.4 cold buffer. The final pellet was resuspended in the same buffer and used at a final concentration of […] of protein/ml.
3H-Ro 25-6981 binding experiments were performed using a Tris-HCl 50 mM, pH 7.4 buffer. For displacement experiments 5 nM of 3H-Ro 25-6981 were used and non specific binding was measured using 10 mM of tetrahydroisoquinoline and usually it accounts for 10% of the total. The incubation time was 2 hours at 4°C and the assay was stopped by filtration on Whatmann GF/B glass fiber filters (Unifilter-96, Packard, Zürich, Switzerland). The filters were washed 5 times with cold buffer. The radioactivity on the filter was counted on a Packard Top-count microplate scintillation counter after addition of […] of microscint 40 (Canberra Packard S.A., Zürich, Switzerland).
The effects of compounds were measured using a minimum of 8 concentrations and repeated at least once. The pooled normalized values were analyzed using a non-linear regression calculation program which provide IC50 with their relative upper and lower 95% confidence limits (RS1, BBN, USA).

[1] = displacement of 5 nM 3H-Ro 25-6981, rat whole brain membranes (minus cerebellum and medulla oblongata), 2 hours at 4°C, read-out: IC50

T1 sequence (Q00960 27-1482, other chains not shown): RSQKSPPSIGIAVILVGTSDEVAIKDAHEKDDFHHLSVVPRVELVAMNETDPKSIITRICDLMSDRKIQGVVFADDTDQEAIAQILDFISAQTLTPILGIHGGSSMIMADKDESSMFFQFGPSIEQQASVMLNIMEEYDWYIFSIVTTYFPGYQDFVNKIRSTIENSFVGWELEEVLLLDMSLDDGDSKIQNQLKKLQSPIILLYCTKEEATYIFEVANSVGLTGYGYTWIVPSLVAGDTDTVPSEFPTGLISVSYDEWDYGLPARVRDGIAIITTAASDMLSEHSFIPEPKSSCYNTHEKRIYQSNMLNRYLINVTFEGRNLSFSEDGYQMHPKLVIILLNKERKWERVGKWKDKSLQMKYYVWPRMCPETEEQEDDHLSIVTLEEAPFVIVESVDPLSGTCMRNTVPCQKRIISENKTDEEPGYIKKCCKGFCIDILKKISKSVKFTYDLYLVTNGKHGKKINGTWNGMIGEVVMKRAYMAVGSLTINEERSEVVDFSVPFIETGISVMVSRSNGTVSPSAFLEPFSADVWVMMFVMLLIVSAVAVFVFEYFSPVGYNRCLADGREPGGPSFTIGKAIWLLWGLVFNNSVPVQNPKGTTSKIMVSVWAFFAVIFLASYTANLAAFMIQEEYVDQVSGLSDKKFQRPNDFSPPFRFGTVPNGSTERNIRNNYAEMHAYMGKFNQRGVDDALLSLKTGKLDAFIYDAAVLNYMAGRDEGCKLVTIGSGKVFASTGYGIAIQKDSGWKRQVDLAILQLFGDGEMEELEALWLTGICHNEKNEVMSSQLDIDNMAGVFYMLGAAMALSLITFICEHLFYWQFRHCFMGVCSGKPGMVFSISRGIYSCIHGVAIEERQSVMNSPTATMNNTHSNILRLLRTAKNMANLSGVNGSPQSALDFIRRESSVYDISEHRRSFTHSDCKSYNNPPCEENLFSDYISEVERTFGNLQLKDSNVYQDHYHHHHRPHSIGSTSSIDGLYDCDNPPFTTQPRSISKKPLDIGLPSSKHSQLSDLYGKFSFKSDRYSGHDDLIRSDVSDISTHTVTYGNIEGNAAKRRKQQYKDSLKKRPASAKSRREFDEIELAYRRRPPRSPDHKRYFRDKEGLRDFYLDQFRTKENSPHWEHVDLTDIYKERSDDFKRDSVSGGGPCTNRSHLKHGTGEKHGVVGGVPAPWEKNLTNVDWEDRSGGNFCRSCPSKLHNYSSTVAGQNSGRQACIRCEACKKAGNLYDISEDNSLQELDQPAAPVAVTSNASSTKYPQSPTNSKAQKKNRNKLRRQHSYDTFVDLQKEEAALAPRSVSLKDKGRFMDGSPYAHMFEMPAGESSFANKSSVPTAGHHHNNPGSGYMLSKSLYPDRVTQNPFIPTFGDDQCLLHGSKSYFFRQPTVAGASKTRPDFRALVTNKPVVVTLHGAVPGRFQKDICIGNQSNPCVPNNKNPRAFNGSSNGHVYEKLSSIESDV

| SMILES | IC50 [1] | IC50 |
| --- | --- | --- |
| CN(CCOc1ccccc1)[C@H]1CC[C@H](c2ccc(O)cc2)CC1 [Example 41b, trans-4-{4-[Methyl-(2-phenoxy-ethyl)-amino]-cyclohexyl}-phenol] | 20 nM | – |
| CCN(CCCc1ccccc1)[C@H]1CC[C@H](c2ccc(O)cc2)CC1 [Example 40c, trans-4-{4-[Ethyl-(3-phenyl-propyl)-amino]-cyclohexyl}-phenol] | 40 nM | – |
| C[C@@H]1C[C@H](c2ccc(O)cc2)CC[C@H]1N(C)CCCc1ccccc1 (racemic) [Example 73b, (1RS,3RS,4RS)-4-[3-Methyl-4-[methyl-(3-phenyl-propyl)-amino]-cyclohexyl]-phenol] | 10 nM | – |
| CN(CCCc1ccccc1)[C@H]1CC[C@H](c2ccc(NS(C)(=O)=O)cc2)CC1 [Example 56, trans-N-(4-{4-[Methyl-(3-phenyl-propyl)-amino]-cyclohexyl}-phenyl)-methanesulfonamide] | 11 nM | – |
| Cc1ccccc1OCCN(C)[C@H]1CC[C@H](c2ccc(O)cc2)CC1 [Example 48c, trans-4-{4-[Methyl-(2-o-tolyloxy-ethyl)-amino]-cyclohexyl}-phenol] | 40 nM | – |
| Oc1ccc([C@H]2CC[C@H](NCCCc3ccc(F)cc3)CC2)cc1 [Example 62b, trans-4-[4-[3-(4-Fluoro-phenyl)-propylamino]-cyclohexyl]-phenol] | 6 nM | – |
| Oc1ccc([C@H]2CC[C@H](NCC(O)Cc3ccccc3)CC2)cc1 (mixture of isomers) [Example 50, (RS)-4-[trans-4-(2-Hydroxy-3-phenyl-propylamino)-cyclohexyl]-phenol] | 80 nM | – |
| CC(CCc1ccccc1)N(C)[C@H]1CC[C@H](c2ccc(O)cc2)CC1 (mixture of isomers) [Example 57b, (RS)-4-[trans-4-[Methyl-(1-methyl-3-phenyl-propyl)-amino]-cyclohexyl]-phenol] | 10 nM | – |
| C[C@@H]1C[C@H](c2ccc(O)cc2)CC[C@H]1NCCCc1ccccc1 (racemic) [Example 74c, (1RS,3RS,4RS)-4-[3-Methyl-4-(3-phenyl-propylamino)-cyclohexyl]-phenol] | 10 nM | – |
| Oc1ccc(C2(O)CCC(NCCCc3ccccc3)CC2)cc1 (stereo not drawn) [Example 71c, cis-4-[1-Hydroxy-4-(3-phenyl-propylamino)-cyclohexyl]-phenol] | – | 25 nM |
| CN(C(CO)CCc1ccccc1)[C@H]1CC[C@H](c2ccc(O)cc2)CC1 (mixture of isomers) [Example 65b, (RS)-4-[trans-4-[(1-Hydroxymethyl-3-phenyl-propyl)-methyl-amino]-cyclohexyl]-phenol] | 10 nM | – |
| Oc1ccc([C@H]2CC[C@H](NCCCCc3ccccc3)CC2)cc1 [Example 24, trans-4-[4-(4-Phenyl-butylamino)-cyclohexyl]-phenol] | 70 nM | – |
| CC(CCc1ccccc1)N[C@H]1CC[C@H](c2ccc(O)cc2)CC1 (mixture of isomers) [Example 58, 4-[trans-4-[(RS)-1-Methyl-3-phenyl-propylamino)-cyclohexyl]-phenol] | 40 nM | – |
| Oc1ccc(N2CCC(NCCCc3ccccc3)CC2)cc1 [Example 77, 4-[4-(3-Phenyl-propylamino)-piperidin-1-yl]-phenol] | 7 nM | – |
| CN(CCOc1ccc(F)cc1)[C@H]1CC[C@H](c2ccc(O)cc2)CC1 [Example 46b, trans-4-(4-{[2-(4-Fluoro-phenoxy)-ethyl]-methyl-amino}-cyclohexyl)-phenol] | 10 nM | – |
| CN(CCCc1ccc(F)cc1)[C@H]1CC[C@H](c2ccc(O)cc2)CC1 [Example 61b, trans-4-(4-{[3-(4-Fluoro-phenyl)-propyl]-methyl-amino}-cyclohexyl)-phenol] | 4 nM | – |
| Cc1ccc(CCCN[C@H]2CC[C@H](c3ccc(O)cc3)CC2)cc1 [Example 60b, trans-4-[4-(3-p-Tolyl-propylamino)-cyclohexyl]-phenol] | 7 nM | – |
| Oc1ccc(N2CCC(NCCCCc3ccccc3)CC2)cc1 [Example 83c, 4-[4-(4-Phenyl-butylamino)-piperidin-1-yl]-phenol] | 60 nM | – |
| Oc1ccc([C@H]2OC[C@H](NCCCc3ccccc3)CO2)cc1 [Example 85, trans-4-[5-(3-Phenyl-propylamino)-[1,3]dioxan-2-yl]-phenol 1:1 but-2-enedioic acid] | – | 22 nM |

More lines, main results first:

| IC50 [1] | SMILES | IC50 |
| --- | --- | --- |
| 20 nM | Oc1ccc([C@H]2CC[C@H](NCCCc3ccccc3)CC2)cc1 [Example 22b, trans-4-[4-(3-Phenyl-propylamino)-cyclohexyl]-phenol] | – |
| 30 nM | Cc1cccc(OCCN(C)[C@H]2CC[C@H](c3ccc(O)cc3)CC2)c1 [Example 47b, trans-4-{4-[Methyl-(2-m-tolyloxy-ethyl)-amino]-cyclohexyl}-phenol] | – |
| 20 nM | OCC(CCc1ccccc1)N[C@H]1CC[C@H](c2ccc(O)cc2)CC1 (mixture of isomers) [Example 66c, (RS)-4-[trans-4-(1-Hydroxymethyl-3-phenyl-propylamino)-cyclohexyl]-phenol] | – |
| 60 nM | Oc1ccc([C@H]2CC[C@H](NCCC(O)c3ccccc3)CC2)cc1 (mixture of isomers) [Example 64b, (RS)-4-[trans-4-(3-Hydroxy-3-phenyl-propylamino)-cyclohexyl]-phenol] | – |
| 20 nM | CN(CCC(O)c1ccccc1)[C@H]1CC[C@H](c2ccc(O)cc2)CC1 (mixture of isomers) [Example 63b, (RS)-4-[trans-4-[(3-Hydroxy-3-phenyl-propyl)-methyl-amino]-cyclohexyl]-phenol] | – |
| 130 nM | Cc1ccc(OCCN(C)[C@H]2CC[C@@H](c3ccc(O)cc3)CC2)cc1 [Example 45b, cis-4-[4-[Methyl-(2-p-tolyloxy-ethyl)-amino]-cyclohexyl]-phenol] | – |
| 27 nM | C[C@@H]1CN(c2ccc(O)cc2)CC[C@@H]1NCCCc1ccccc1 (racemic) [Example 81g, (3RS,4SR)-4-[3-Methyl-4-(3-phenyl-propylamino)-piperidin-1-yl]-phenol] | – |
| 8 nM | Cc1ccc(OCCN(C)[C@H]2CC[C@H](c3ccc(O)cc3)CC2)cc1 [Example 44b, trans-4-[4-[Methyl-(2-p-tolyloxy-ethyl)-amino]-cyclohexyl]-phenol] | – |
| 100 nM | CN(CCC(CO)c1ccccc1)[C@H]1CC[C@H](c2ccc(O)cc2)CC1 (mixture of isomers) [Example 67b, (RS)-4-[trans-4-[(4-Hydroxy-3-phenyl-butyl)-methyl-amino]-cyclohexyl]-phenol] | – |
| 7 nM | CN(CCCc1ccccc1)C1CCN(c2ccc(O)cc2)CC1 [Example 75, 4-[4-[Methyl-(3-phenyl-propyl)-amino]-piperidin-1-yl]-phenol] | – |
| 20 nM | Oc1ccc([C@H]2CC[C@H](NCCOc3ccccc3)CC2)cc1 [Example 43b, trans-4-[4-(2-Phenoxy-ethylamino)-cyclohexyl]-phenol] | – |
| 9 nM | CN(CCCc1ccccc1)[C@H]1CC[C@H](c2ccc(O)cc2)CC1 [Example 39b, trans-4-{4-[Methyl-(3-phenyl-propyl)-amino]-cyclohexyl}-phenol] | – |
| 100 nM | OCC(CN[C@H]1CC[C@H](c2ccc(O)cc2)CC1)Cc1ccccc1 (mixture of isomers) [Example 70b, (RS)-4-[trans-4-(2-Hydroxymethyl-3-phenyl-propylamino)-cyclohexyl]-phenol] | – |
